In the NIST ThermoML archive (doi:10.1016/j.tca.2013.03.025):

Assay: xn = mol fraction of the nth substance listed
Settings: 101 kPa, Liquid; for viscosity: Concentric cylinders viscometry; for mass density: Vibrating tube method

CCCCOC(=O)C(C)O (stereo not given) [butyl 2-hydroxypropanoate] + CC(O)CO
Settings	mass density [kg/m3]	viscosity [mPa·s]
288.15 K, x1 = 0.0999	1028.94	49.57
288.15 K, x1 = 0.2	1020.52	32.76
288.15 K, x1 = 0.3	1014.01	22.44
288.15 K, x1 = 0.3999	1008.69	16.49
288.15 K, x1 = 0.4998	1004.11	12.5
288.15 K, x1 = 0.6	999.883	9.662
288.15 K, x1 = 0.6996	996.116	7.754
288.15 K, x1 = 0.7999	992.836	6.357
288.15 K, x1 = 0.9	990.017	5.352
288.15 K, x1 = 1	987.269	4.628
293.15 K, x1 = 0.0999	1025.09	36.74
293.15 K, x1 = 0.2	1016.49	24.82
293.15 K, x1 = 0.3	1009.81	17.35
293.15 K, x1 = 0.3999	1004.36	12.96
293.15 K, x1 = 0.4998	999.672	9.963
293.15 K, x1 = 0.6	995.344	7.814
293.15 K, x1 = 0.6996	991.481	6.325
293.15 K, x1 = 0.7999	988.111	5.256
293.15 K, x1 = 0.9	985.199	4.454
293.15 K, x1 = 1	982.366	3.88
298.15 K, x1 = 0.0999	1021.19	27.81
298.15 K, x1 = 0.2	1012.41	19.18
298.15 K, x1 = 0.3	1005.65	13.58
298.15 K, x1 = 0.3999	1000	10.3
298.15 K, x1 = 0.4998	995.208	8.084
298.15 K, x1 = 0.6	990.768	6.393
298.15 K, x1 = 0.6996	986.821	5.252
298.15 K, x1 = 0.7999	983.363	4.394
298.15 K, x1 = 0.9	980.366	3.772
298.15 K, x1 = 1	977.448	3.307
303.15 K, x1 = 0.0999	1017.29	21.45
303.15 K, x1 = 0.2	1008.34	15.08
303.15 K, x1 = 0.3	1001.42	10.86
303.15 K, x1 = 0.3999	995.637	8.42
303.15 K, x1 = 0.4998	990.737	6.606
303.15 K, x1 = 0.6	986.189	5.339
303.15 K, x1 = 0.6996	982.143	4.426
303.15 K, x1 = 0.7999	978.595	3.741
303.15 K, x1 = 0.9	975.512	3.226
303.15 K, x1 = 1	972.515	2.86
308.15 K, x1 = 0.0999	1013.34	16.82
308.15 K, x1 = 0.2	1004.23	12.05
308.15 K, x1 = 0.3	997.153	8.886
308.15 K, x1 = 0.3999	991.238	6.935
308.15 K, x1 = 0.4998	986.236	5.542
308.15 K, x1 = 0.6	981.583	4.506
308.15 K, x1 = 0.6996	977.444	3.772
308.15 K, x1 = 0.7999	973.812	3.212
308.15 K, x1 = 0.9	970.644	2.796
308.15 K, x1 = 1	967.567	2.481
313.15 K, x1 = 0.0999	1009.36	13.4
313.15 K, x1 = 0.2	1000.07	9.766
313.15 K, x1 = 0.3	992.852	7.317
313.15 K, x1 = 0.3999	986.813	5.772
313.15 K, x1 = 0.4998	981.71	4.666
313.15 K, x1 = 0.6	976.954	3.848
313.15 K, x1 = 0.6996	972.719	3.25
313.15 K, x1 = 0.7999	969.003	2.791
313.15 K, x1 = 0.9	965.755	2.449
313.15 K, x1 = 1	962.603	2.181
318.15 K, x1 = 0.0999	1005.34	10.83
318.15 K, x1 = 0.2	995.893	8.021
318.15 K, x1 = 0.3	988.531	6.099
318.15 K, x1 = 0.3999	982.364	4.873
318.15 K, x1 = 0.4998	977.162	3.982
318.15 K, x1 = 0.6	972.304	3.319
318.15 K, x1 = 0.6996	967.975	2.828
318.15 K, x1 = 0.7999	964.179	2.449
318.15 K, x1 = 0.9	960.848	2.163
318.15 K, x1 = 1	957.624	1.935
323.15 K, x1 = 0.0999	1001.29	8.864
323.15 K, x1 = 0.2	991.678	6.665
323.15 K, x1 = 0.3	984.178	5.141
323.15 K, x1 = 0.3999	978.01	4.159
323.15 K, x1 = 0.4998	972.59	3.435
323.15 K, x1 = 0.6	967.647	2.889
323.15 K, x1 = 0.6996	963.208	2.483
323.15 K, x1 = 0.7999	959.336	2.166
323.15 K, x1 = 0.9	955.922	1.924
323.15 K, x1 = 1	952.631	1.728
